{"source": "patent US20260256792A1", "about": "“TREATMENT OF CHRONIC SPONTANEOUS URTICARIA BY ADMINISTERING (R)-2-[3-[4-AMINO-3-(2-FLUORO-4-PHENOXY-PHENYL)PYRAZOLO[3,4-D]PYRIMIDIN-1-YL]PIPERIDINE-1-CARBONYL]-4-METHYL-4-[4-(OXETAN-3-YL)PIPERAZIN-1-YL]PENT-2-ENENITRILE” (priority 2023, published 2026)", "key": {"sMRGPRX2": {"tested_on": "sMRGPRX2", "test": "Phase 2 CSU study: serum sMRGPRX2 ELISA", "type": "in vivo, human", "conditions": "for SMRGPRX2 (ng/mL) Median Percent Change from Baseline: Baseline to Week 12", "source_text": "Blood samples were also collected through Week 12 to evaluate the change in baseline in various biomarkers, including sMRGPRX2, IgG anti-TPO, IgG anti-FCεRI, IgG anti-IgE, and IL-31.\nCollection of biological samples for other biomarker research was also part of this study. The following samples for biomarker research were required and were to be collected from all participants in this study: • Serum and plasma samples for soluble biomarkers and cellular tests. Analytes included IgG anti-IgE, IgG anti-FcεRI, IgG anti-TPO, IgE anti-TPO, IL-31, and sMRGPRX2. • Blood samples for immune cell phenotyping, including measurement of eosinophil levels • Blood samples for BTK occupancy in peripheral blood mononuclear cells (PBMCs) at selected sites\nFor each patient, serum samples were to be collected on each of four visits (Visits 2, 4, 6, and end of study/follow up).\nSerum analyte testing was to be performed using the following commercial assays: • sMRGPRX2 ELISA (Cat. No. #MBS933336; MyBioSource) • IL-31 HTRF assay (Cat. No. #62HIL31PEG; Cisbio/PerkinElmer) • IgG anti-TPO ELISA (Cat. No. #ORG503; Orgentec Diagnostica GmbH)\nIf dilutions were to be prepared, the same dilutions were to be prepared twice from each sample. These were to be measured on different plates. Each plate was to include a standard curve. Samples were to be measured twice for all biomarkers except for sMRGPRX2. Mean measurement values were to be calculated, and the concentration of the biomarker was to be calculated using GraphPad Prism 9 software (4-PL model).\nFor the sMRGPRX2 ELISA, measurements were performed according to the manufacturer's instructions. Single measurements were obtained for all samples.\nAssay data ranges are described below. • sMRGPRX2: 0.1 ng/mL-10 ng/mL • IgG anti-FCεRI: 0-10000 arbitrary units (AU) • IgG anti-TPO: 0-3000 international units (IU) • IgE anti-TPO: 0-500 AU • IgG anti-IgE: 0-100000 AU • IL-31: 0.1 ng/mL-20 ng/mL"}, "[1]": {"tested_on": "naturally occurring pemphigus foliaceus (PF)", "conditions": "dogs with newly diagnosed pemphigus foliaceus; cited from earlier work"}}}
{"smiles": "CC(C)(C=C(C#N)C(=O)N1CCC[C@@H](n2nc(-c3ccc(Oc4ccccc4)cc3F)c3c(N)ncnc32)C1)N1CCN(C2COC2)CC1", "note": "[rilzabrutinib, (R)-2-[3-[4-amino-3-(2-fluoro-4-phenoxy-phenyl)pyrazolo[3,4-d]pyrimidin-1-yl]piperidine-1-carbonyl]-4-methyl-4-[4-(oxetan-3-yl)piperazin-1-yl]pent-2-enenitrile]", "values": [{"measurement": "reduction from baseline median sMRGPRX2 levels", "setting": "sMRGPRX2; 400 mg TID, Week 12", "value": 22.8, "unit": "%"}, {"measurement": "SMRGPRX2 (ng/mL) Median Percent Change from Baseline", "setting": "sMRGPRX2; 400 mg BID", "value": "−29.3", "unit": "%"}, {"measurement": "SMRGPRX2 (ng/mL) Median Percent Change from Baseline", "setting": "sMRGPRX2; 400 mg QPM", "value": "−31.1", "unit": "%"}, {"measurement": "SMRGPRX2 (ng/mL) Median Percent Change from Baseline", "setting": "sMRGPRX2; 400 mg TID", "value": "−22.8", "unit": "%"}, {"measurement": "cases with disease controlled without corticosteroid", "setting": "[1]", "value": "4 of 4"}]}
